A short description of data set [1]: Paraesthesia symptoms after ingesting edible gel or beta-alanine dissolved in water (Example 1). Particulars: 2 g beta-alanine ingested; following 20 minutes. The format is in vivo, human. On the procedure: To prepare an edible gel containing free beta-alanine the contents of two packets of commercially available strawberry flavored gelatin gel were dissolved in 200 ml of boiling water. The contents were stirred continuously until the gel was completely dissolved. The gel was further fortified with the addition of a sachet of gelatin capsules. To this was added 80 g free beta-alanine (in a final volume of approximately 300 ml). The concentrated gel solution was poured into a 12×12 cm flat mould to a depth of approximately 2 cm and allowed to set to a stiff gel at 4° C. One square piece of gel (approximately 2×2×2 cm in size) contained approximately 2 g of beta-alanine.
In contrast, symptoms of paraesthesia were detected in subjects that ingested 2 g free beta-alanine dissolved in water. Thus the sustained release of free beta-alanine mitigates the symptoms of paraesthesia that are felt when equivalent amounts are administered in a single bolus dose.

Data set [2] in a line: Paraesthesia symptoms, drink versus delayed release capsules (Example 3). The format is in vivo, human. Particulars: 1.75 g beta-alanine; two subjects. From the text:
Two subjects were given 1.75 g beta-alanine dissolved in water (formulated as a drink) or 5 capsules, each containing 0.35 g beta-alanine in a delayed release formulation.

Data set [3] has as its system muscle. Particulars: administering to an individual. From the text:
The dosing schedule that has been preferred for such administration (i.e., 8 times daily), however, leads to compliance issues and problems with paraesthesia. Thus, there is a need for improved supplements containing free beta-alanine or a biological source thereof in a sustained release formulation to increase compliance and decrease paraesthesia events.
During sustained intensive exercise or exercise sustained under conditions of local hypoxia, the accumulation of hydronium ions formed during glycolysis and the accumulation of lactate due to anaerobic metabolism can severely reduce the intracellular pH. The reduced pH can compromise the function of the creatine-phosphorylcreatine system. The decline in intracellular pH also can affect other functions within the cells such as the function of the contractile proteins in muscle fibers.

For data set [4] the following is noted: bolus single dose of 2-6 grams.
Data set [5] concerns muscle. Particulars: following administration (supplementation); previous work; cited from earlier work.

For the compound `NCCC(=O)O` [beta-alanine], the symptoms of paraesthesia result in data set [1] is “detected”. In data set [2], the symptoms of paraesthesia entry was “reported symptoms of paraesthesia affecting the face, scalp, neck, arms, hands and buttocks”. Besides, in data set [3], the “muscle beta-alanylhistidine peptide levels” value is “elevated” and the “total work capacity of the muscle” value is reported as “increased”. The paraesthesia entry in data set [4] is “results in paraesthesia”. Besides, the carnosine in muscle result in data set [5] is given as “significantly increased”.
